According to PubChem BioAssay AID258 (DTP/NCI, 2004):
“And” between values parts separate entries of the source, which are not always exact repeats. Equal entries are not always repeated. Toxic doses and inconclusive results are not listed. Rule for the calls: active = survival T/C of 150% or more; inactive = T/C below 125% in these data. Starred links: 1 amine or outer side, 2 acyl side, 3 side chain; linkers in the order of their positions; H or OH if unused. Positions of bridges follow the written chain, without caps; N, C: chain ends. Non-standard residues stand in square brackets, D forms with d. Residues, ends and D or L forms follow the SMILES beside them. Chains are numbered I, II in the order given. Actinocin(9to1) = Cc1c2oc3c(C)ccc(C(=O)[*:1])c3nc-2c(C(=O)[*:2])c(N)c1=O; aThr = C[C@H](O)[C@H](N)C(=O)O; NMeV = CN[C@H](C(=O)O)C(C)C; Sar = CNCC(=O)O

System: CD2F1 mice, L1210 leukemia sc, survival T/C
Assay: NCI In Vivo Anticancer Drug Screen. Data for tumor model L1210 Leukemia (subcutaneous) in CD2F1 (CDF1) mice
Settings: endpoint: median survival time, higher = longer survival
Outline: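 Transplantable tumor-bearing mice were treated with compound; survival or tumor size measured and expressed as treated-group value (T) divided by vehicle-treated control value (C).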

Measured: T/C

Cc1c2oc3c(C)ccc(C(=O)N[C@@H]4C(=O)N[C@H](C(C)C)C(=O)N5CCC[C@H]5C(=O)N(C)CC(=O)N(C)[C@@H](C(C)C)C(=O)O[C@H]4C)c3nc-2c(C(=O)N[C@@H]2C(=O)N[C@H](C(C)C)C(=O)N3CCC[C@H]3C(=O)N(C)CC(=O)N(C)[C@@H](C(C)C)C(=O)O[C@H]2C)c(N)c1=O (I: [aThr][dV]P[Sar][NMeV] / II: [aThr][dV]P[Sar][NMeV]; ester I:1-I:C, II:1-II:C; linker I:N-II:N via Actinocin(9to1))
inactive: dose: 0.05 mg/kg/injection, schedule: Q01DX009 (sc), vehicle: saline 101 % of control | dose: 0.05 mg/kg/injection, schedule: Q01DX Z (sc), vehicle: other 108 % of control and 100 % of control | dose: 0.05 mg/kg/injection, schedule: Q01DX Z (sc), vehicle: saline 100 % of control | dose: 0.08 mg/kg/injection, schedule: Q01DX Z (sc), vehicle: other 112 % of control | dose: 0.08 mg/kg/injection, schedule: Q07DX Z (sc), vehicle: other 100 % of control | dose: 0.09 mg/kg/injection, schedule: Q01DX Z (sc), vehicle: other 116 % of control | dose: 0.1 mg/kg/injection, schedule: Q01DX009 (sc), vehicle: saline 113 % of control | dose: 0.13 mg/kg/injection, schedule: Q01DX009 (sc), vehicle: saline 122 % of control | dose: 0.14 mg/kg/injection, schedule: Q07DX Z (sc), vehicle: other 112 % of control | dose: 0.15 mg/kg/injection, schedule: Q01DX009 (sc), vehicle: saline 120 % of control | dose: 0.2 mg/kg/injection, schedule: Q01DX009 (sc), vehicle: saline 105 % of control and 113 % of control | dose: 0.23 mg/kg/injection, schedule: Q07DX Z (sc), vehicle: other 112 % of control | dose: 0.25 mg/kg/injection, schedule: Q01DX009 (sc), vehicle: saline 93 % of control | dose: 0.3 mg/kg/injection, schedule: Q01DX009 (sc), vehicle: saline 95 % of control | dose: 0.39 mg/kg/injection, schedule: Q07DX Z (sc), vehicle: other 112 % of control | dose: 0.42 mg/kg/injection, schedule: Q01DX Z (sc), vehicle: other 116 % of control | dose: 0.7 mg/kg/injection, schedule: Q01DX Z (sc), vehicle: other 112 % of control | dose: 1.17 mg/kg/injection, schedule: Q01DX Z (sc), vehicle: other 100 % of control | dose: 12.0 micrograms/kg/injection, schedule: Q01DX009 (ip), vehicle: saline 101 % of control | dose: 12.0 micrograms/kg/injection, schedule: Q01DX009 (sc), vehicle: saline 101 % of control | dose: 25.0 micrograms/kg/injection, schedule: Q01DX009 (ip), vehicle: saline 102 % of control | dose: 25.0 micrograms/kg/injection, schedule: Q01DX009 (sc), vehicle: saline 100 % of control | dose: 50.0 micrograms/kg/injection, schedule: Q01DX009 (ip), vehicle: saline 98 % of control | dose: 50.0 micrograms/kg/injection, schedule: Q01DX009 (sc), vehicle: saline 101 % of control | dose: 100.0 micrograms/kg/injection, schedule: Q01DX009 (ip), vehicle: saline 113 % of control | dose: 100.0 micrograms/kg/injection, schedule: Q01DX009 (sc), vehicle: saline 103 % of control and 119 % of control | dose: 200.0 micrograms/kg/injection, schedule: Q01DX009 (ip), vehicle: saline 107 % of control | dose: 200.0 micrograms/kg/injection, schedule: Q01DX009 (sc), vehicle: saline 114 % of control and 118 % of control | dose: 400.0 micrograms/kg/injection, schedule: Q01DX009 (sc), vehicle: saline 112 % of control and 86 % of control

O=C(Nc1nncs1)c1cccs1
inactive: dose: 50.0 mg/kg/injection, schedule: Q01DX009 (ip), vehicle: saline with Tween-80 99 % of control | dose: 100.0 mg/kg/injection, schedule: Q01DX009 (ip), vehicle: saline with Tween-80 95 % of control | dose: 200.0 mg/kg/injection, schedule: Q01DX009 (ip), vehicle: saline with Tween-80 100 % of control | dose: 400.0 mg/kg/injection, schedule: Q01DX009 (ip), vehicle: saline with Tween-80 100 % of control | dose: 800.0 mg/kg/injection, schedule: Q01DX009 (ip), vehicle: saline with Tween-80 121 % of control
